*1 amine or outer side, *2 acyl side, *3 side chain or, on linkers, in order; H or OH if unused. Where a SMILES comes first, the peptide text is derived from it. [ ]: non-standard residue; d: D form. ξ: configuration not given here. ξNMeVal(3-OH) = CNC(C(=O)O)C(C)(C)O; NMeF = CN[CH](Cc1ccccc1)C(=O)O; X1 = CCC(C)C(O[*:1])C(=O)[*:2]; NMeV = CN[CH](C(=O)O)C(C)C
Experiments:
Botrytis cinerea = experiment: microbe, parasite or virus in culture; type: cell-based; details: 72 hours
Method: Mycelia fragments or conidia suspensions of a fungus, prepared either freshly from liquid cultures of the fungus or from cryogenic storage, are directly mixed into nutrient broth. DMSO solutions of the test compound (max. 10 mg/mL) is diluted with 0.025% Tween20 by factor 50 and 10 µL of this solution is pipetted into a microtiter plate (96-well format). […] The test plates are incubated in the dark at 24° C. and 96% relative humidity (rh). The inhibition of fungal growth is determined photometrically and visually after 3 - 7 days, depending on the pathosystem, and percent antifungal activity relative to the untreated check is calculated.
Conidia of the fungus from cryogenic storage were directly mixed into nutrient broth (PDB potato dextrose broth). After placing a DMSO solution of the test compositions into a microtiter plate (96-well format), the nutrient broth containing the fungal spores was added.

Alternaria solani = type: cell-based; details: 48 hours
Method: Mycelia fragments or conidia suspensions of a fungus, prepared either freshly from liquid cultures of the fungus or from cryogenic storage, are directly mixed into nutrient broth. DMSO solutions of the test compound (max. 10 mg/mL) is diluted with 0.025% Tween20 by factor 50 and 10 µL of this solution is pipetted into a microtiter plate (96-well format). The nutrient broth containing the fungal spores/mycelia fragments is then added to give an end concentration of the tested compound. The test plates are incubated in the dark at 24° C. and 96% relative humidity (rh). The inhibition of fungal growth is determined photometrically and visually after 3 - 7 days, depending on the pathosystem, and percent antifungal activity relative to the untreated check is calculated.
Conidia of the fungus from cryogenic storage were directly mixed into nutrient broth (PDB potato dextrose broth). After placing a DMSO solution of the test compositions into a microtiter plate (96-well format) the nutrient broth containing the fungal spores was added.

SMILES: CCC(C)C1NC(=O)C2CCCN2C(=O)C(Cc2ccccc2)N(C)C(=O)C(Cc2ccccc2)NC(=O)C(C(C)C)N(C)C(=O)C(C(C)CC)OC(=O)C(C(C)(C)O)N(C)C(=O)C(CC(C)C)NC(=O)C(C(C)C)N(C)C1=O (centres unmarked) [Aureobasidin A] (cyclo([ξNMeVal(3-OH)][X1][NMeV]F[NMeF]PI[NMeV]L); configuration not given here)
- (A) inhibition (Botrytis cinerea; Aureobasidin A 0.01 ppm alone, fludioxonil table): 22%
- (A) inhibition (Botrytis cinerea; Aureobasidin A 0.01 ppm alone, growth inhibition, photometric, iprodione table): 18%
- (A) inhibition (Botrytis cinerea; Aureobasidin A 0.02 ppm alone, iprodione table): 60%
- (A) inhibition (Alternaria solani; Aureobasidin A 0.005 ppm alone, growth inhibition, photometric): 11%

SMILES: N#Cc1c[nH]cc1-c1cccc2c1OC(F)(F)O2 [Fludioxonil, fludioxonil]
- inhibition at […] (Botrytis cinerea; Botrytis cinerea, Fludioxonil 0.0063 ppm alone, read-out: (B) inhibition): 0%

SMILES: C=CCOC(Cn1ccnc1)c1ccc(Cl)cc1Cl (centres unmarked) [Imazalil]
- (B) inhibition (Alternaria solani; component (B) 0.5 ppm alone): 35%

SMILES: CC(C)NC(=O)N1CC(=O)N(c2cc(Cl)cc(Cl)c2)C1=O [Iprodione, iprodione]
- inhibition at 0.125 ppm (Botrytis cinerea; Botrytis cinerea, Iprodione 0.125 ppm alone, read-out: (B) inhibition): 4%
- inhibition at 0.25 ppm (Botrytis cinerea; Botrytis cinerea, Iprodione 0.250 ppm alone, read-out: (B) inhibition): 0%

From US20230240291A1, “FUNGICIDAL COMPOSITIONS” (SYNGENTA CROP PROTECTION AG, priority 2020, published 2023)
